Laboratory results as given in patent publication US12048708B2 (RHOSHAN PHARMACEUTICALS, INC., priority 2017, dated 2024).

Experiments:
[1] = pH of bulk and reconstituted solutions of ASA lyophilized with bases from TBA/water; format: physicochemical
From the text: The pH of the solution was raised to 6.5 using 1N sodium hydroxide. Phase separation was observed, probably due to salting out of inorganic base from TBA/Water system. In the next trial, we first raised the pH of the solution to 5.0 using 1N sodium hydroxide, and then sodium phosphate, dibasic to raise the pH to 6.5. Sodium phosphate, dibasic was used for a better control of pH. Since we still observed phase separation it appears that inorganic bases or buffers may not be compatible with a 80% TBA/20% water system. We may require more water, for example, 70% TBA/30% water in the system to dissolve the alkalinizing agents.
Inorganic buffers such as sodium phosphate, dibasic, are not soluble in this solvent system.
The reconstituted solution pH was 4.71.
In the next trial, we investigated incorporation of […] to facilitate complete neutralization. […] Arginine was, then, slowly added to the slurry to neutralize aspirin. […] The apparent pH of the bulk solution was 6.49. 5 ml aliquots placed in flint vials and lyophilized. Upon completion of lyophilization, the content of vial was reconstituted with 5 ml of Water for Injection. […] The reconstituted solution pH was 4.8.
Based on the above studies, it was evident that larger amount of base is needed to neutralize ASA in the preferred solvent system. To incorporate more base in the bulk solution, we explored use of 60/40 TBA/water system as solvent for lyophilization. […] The apparent pH of the bulk solution was 6.31. […] The reconstituted solution pH was 4.41. […] We reconstituted the lyophile with 5 ml of buffer solution containing different concentrations of disodium phosphate.

[2] = Bulk solution stability of ASA in TBA-water system; format: physicochemical; conditions: 80/20, 70/30 and 60/40 TBA/water solutions, 24-hour storage at ambient storage conditions
Protocol: For a robust lyophilization process, the drug should not degrade in the bulk solution for lyophilization for at least 24 hours.

[3] = Particle size distribution (Malvern Master sizer 2000, dry powder volume distribution); format: physicochemical; conditions: API used to make the batches
From the text: Additionally, we have measured the particle size distribution of the lyophiles and API. The measurement of particle size (Malvern, Master sizer 2000) of all the samples were done by using dry powder volume distribution method.

[4] = Lyophilization of aspirin with lysine from water, HPLC analysis; format: physicochemical; conditions: ASA with lysine in water, 50 mg/ml, pH 6.5, HPLC
Protocol: The pH of the solution was 4.5. We added an additional amount of lysine to raise the pH of the bulk solution to 6.5. When all the drug was dissolved, a clear solution was formed. […] The product, however, was not lyophilized properly. The lyophilized cake collapsed.

rabbit ear vein = assay: IV irritation studies in rabbit ear vein; format: in vivo; conditions: ASA solution of different osmolalities (300 to 1300 mOsm/kg) injected in rabbit ear vein
From the text: It is an unexpected discovery or finding.

[5] = cited from earlier work
platelet aggregation = conditions: following oral dosing, oral tablet or capsule; cited from earlier work

o-acetylsalicylic acid [ASA]
apparent pH of the bulk solution ([1]; 2 g aspirin, 100 mg sodium hydroxide, about 1.6 g arginine in 100 ml 70/30 TBA/water): 6.49
apparent pH of the bulk solution ([1]; 2 g of ASA and 400 mg sodium hydroxide in 100 ml 60/40 TBA/water): 6.31
reconstituted solution pH ([1]; lyophile of 2 g aspirin, 100 mg sodium hydroxide, about 1.6 g arginine per 100 ml 70/30 TBA/water, 5 ml aliquot reconstituted with 5 ml Water for Injection): 4.8
degradation in bulk solution [2]: No appreciable degradation
D50% (μm) [3]: 92.9 μm
D90% (μm) [3]: 249.5 μm
D100% (μm) [3]: 431.0 μm
ASA degraded during the lyophilization process [4]: about 40%
IV irritation (rabbit ear vein): no irritation was observed
aqueous solubility [5]: about 3 mg/ml
time to 10% of potency loss ([5]; concentrated bulk solution): about 1.3 hours
onset of inhibition of platelet aggregation (platelet aggregation): approximately 40 minutes
